Results: ChEMBL document CHEMBL4715885, “Novel dual LSD1/HDAC6 inhibitors for the treatment of multiple myeloma” (Bioorg Med Chem Lett, 2021)

Assays:
[1] = Stability in human liver microsomes assessed as parent compound remaining measured after 30 mins; format: ADME, Microsome; settings: liver microsomes, read-out: Stabilty
MM1.S = experiment: Antiproliferative activity against human MM1.S cells assessed as reduction in cell viability after 144 hrs; format: functional, cell-based
[2] = Stability in mouse liver microsomes assessed as parent compound remaining measured after 30 mins; format: ADME, Microsome; settings: liver microsomes, read-out: Stabilty
[3] = biological target: Histone deacetylase 1 (Homo sapiens) (UniProt Q13547); experiment: Inhibition of human HDAC1 at 1uM using RHKKAc as substrate by fluorescence method relative to control
Chain of Histone deacetylase 1 (Homo sapiens) (Q13547 whole entry): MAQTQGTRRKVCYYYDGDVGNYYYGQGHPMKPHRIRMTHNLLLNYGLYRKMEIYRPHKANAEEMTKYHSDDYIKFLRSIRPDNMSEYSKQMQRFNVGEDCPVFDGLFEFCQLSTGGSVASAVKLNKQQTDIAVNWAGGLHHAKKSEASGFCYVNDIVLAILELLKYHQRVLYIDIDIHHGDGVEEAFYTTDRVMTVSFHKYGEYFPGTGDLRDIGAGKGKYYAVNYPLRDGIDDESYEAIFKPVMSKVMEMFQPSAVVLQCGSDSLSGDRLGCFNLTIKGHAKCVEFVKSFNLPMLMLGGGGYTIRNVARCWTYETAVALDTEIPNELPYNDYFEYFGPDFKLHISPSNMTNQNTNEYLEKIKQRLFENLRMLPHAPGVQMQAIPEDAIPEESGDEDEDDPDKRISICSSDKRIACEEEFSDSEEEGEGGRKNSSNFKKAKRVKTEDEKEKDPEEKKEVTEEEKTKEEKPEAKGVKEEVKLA

[4] = biological target: T1, Protein deacetylase HDAC6 (Homo sapiens, UniProt Q9UBN7); experiment: Inhibition of human HDAC6 (unknown origin) using RHKKAc as substrate by fluorescence method; settings: read-out: IC50
T1 sequence (Q9UBN7 whole entry): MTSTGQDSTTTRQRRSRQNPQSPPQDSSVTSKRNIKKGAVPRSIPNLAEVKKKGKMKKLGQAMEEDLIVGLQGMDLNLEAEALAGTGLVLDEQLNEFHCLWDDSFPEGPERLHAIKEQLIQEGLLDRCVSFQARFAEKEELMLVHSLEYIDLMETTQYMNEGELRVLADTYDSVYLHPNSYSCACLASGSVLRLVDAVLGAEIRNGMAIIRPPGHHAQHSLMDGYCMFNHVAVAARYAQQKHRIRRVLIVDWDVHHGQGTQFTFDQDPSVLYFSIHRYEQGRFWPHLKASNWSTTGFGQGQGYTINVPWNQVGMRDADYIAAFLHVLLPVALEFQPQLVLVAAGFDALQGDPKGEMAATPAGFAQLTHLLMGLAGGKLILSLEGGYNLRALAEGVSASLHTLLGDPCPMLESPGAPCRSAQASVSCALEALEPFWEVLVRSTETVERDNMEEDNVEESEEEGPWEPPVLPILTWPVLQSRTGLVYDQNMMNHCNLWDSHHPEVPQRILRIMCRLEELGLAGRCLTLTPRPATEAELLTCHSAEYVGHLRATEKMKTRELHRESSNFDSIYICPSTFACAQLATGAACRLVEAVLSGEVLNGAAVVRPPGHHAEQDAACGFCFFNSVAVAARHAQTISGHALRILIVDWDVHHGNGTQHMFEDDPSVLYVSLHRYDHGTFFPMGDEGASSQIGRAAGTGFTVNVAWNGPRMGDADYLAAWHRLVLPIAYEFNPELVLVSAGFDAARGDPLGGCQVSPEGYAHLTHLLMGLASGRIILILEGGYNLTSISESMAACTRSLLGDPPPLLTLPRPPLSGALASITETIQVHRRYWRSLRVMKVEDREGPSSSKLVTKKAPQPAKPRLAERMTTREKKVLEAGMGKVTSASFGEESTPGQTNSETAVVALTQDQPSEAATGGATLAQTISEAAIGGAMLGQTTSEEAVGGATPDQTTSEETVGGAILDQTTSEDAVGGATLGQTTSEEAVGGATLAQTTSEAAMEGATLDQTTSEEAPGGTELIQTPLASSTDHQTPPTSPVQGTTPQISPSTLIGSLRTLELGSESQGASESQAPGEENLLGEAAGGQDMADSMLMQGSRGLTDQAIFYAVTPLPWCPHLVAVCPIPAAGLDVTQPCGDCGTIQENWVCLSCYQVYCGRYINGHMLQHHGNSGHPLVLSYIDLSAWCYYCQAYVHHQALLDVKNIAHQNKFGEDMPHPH

[5] = biological target: Lysine-specific histone demethylase 1A (Homo sapiens, UniProt O60341); experiment: Inhibition of LSD1 (unknown origin); settings: read-out: IC50

Row | EC50 (MM1.S) | SMILES | remaining at 0.5 h [1] | remaining at 0.5 h [2] | inhibition [3] | IC50 [4] | IC50 [5]
1 | 4 nM | O=C(NO)c1ccc(CCCN2CCC(CN[C@H]3C[C@@H]3c3ccccc3)CC2)cc1 [listing 1 of 2 here] | 51% | 50% | – | – | –
2 | 3 nM | O=C(NO)c1ccc(CCCN2CCC(CN[C@@H]3C[C@H]3c3ccccc3)CC2)cc1 | 38% | 26% | 57.6% | – | –
3 | – | O=C(NO)c1ccc(CCCN2CCC(CN[C@H]3C[C@@H]3c3ccccc3)CC2)cc1 [listing 2 of 2 here] | – | – | 2.06% | – | –
4 | – | O=C(NO)c1ccc(CCCN2CCC(CN[C@H]3C[C@@H]3c3ccc(OCc4ccc(F)cc4)cc3)CC2)cc1 (racemic) | 79% | 56% | -1.79% | 12 nM | 4 nM
5 | – | COc1ccc([C@H]2C[C@@H]2NCC2CCN(CCCc3ccc(C(=O)NO)cc3)CC2)cc1 (racemic) | 74% | 91% | 46.7% | 38 nM | 6 nM
6 | – | O=C(NO)c1ccc(CCCN2CCc3cc(CN[C@H]4C[C@@H]4c4ccc(F)cc4)ccc3C2)cc1 (racemic) | 72% | 32% | – | – | –
7 | – | COc1ccc([C@H]2C[C@@H]2NCc2cn3c(n2)CN(CCCc2ccc(C(=O)NO)cc2)CC3)cc1 (racemic) | 73% | < 5% | 26.6% | 28 nM | 1100 nM
8 | – | N#Cc1ccc(-c2ccc([C@H]3C[C@@H]3NCC3CCN(CCCc4ccc(C(=O)NO)cc4)CC3)cc2)cc1 (racemic) | 76% | 75% | – | – | 32 nM
9 | 48 nM | CN(CC1CCN(CCCc2ccc(C(=O)NO)cc2)CC1)[C@H]1C[C@@H]1c1ccccc1 (racemic) | – | – | 8.37% | – | 465 nM
10 | – | CN(C)CCNC(=O)c1ccc([C@H]2C[C@@H]2NCC2CCN(CCCc3ccc(C(=O)NO)cc3)CC2)cc1 (racemic) | 40% | 36% | 58.1% | 130 nM | 22 nM
11 | – | O=C(NO)c1ccc(CCCN2CCC(CN[C@H]3C[C@@H]3c3ccc(C(=O)N4CCOCC4)cc3)CC2)cc1 (racemic) | 89% | 82% | 47.6% | – | 22 nM
12 | – | O=C(NO)c1ccc(CCCN2CCC(CN[C@H]3C[C@@H]3c3ccc(F)cc3)CC2)cc1 (racemic) | 54% | 66% | 12.7% | 51 nM | 6 nM
13 | – | O=C(NO)c1ccc(CCCN2CCC(CN[C@H]3C[C@@H]3c3ccc(-c4ccc(Cl)cc4)cc3)CC2)cc1 (racemic) | 77% | 81% | 23.6% | 19 nM | 2 nM
14 | – | O=C(NO)c1ccc(CCCN2CCC(CN[C@H]3C[C@@H]3c3ccc(-c4ccc(F)cc4)cc3)CC2)cc1 (racemic) | 92% | 75% | 9.74% | 59 nM | 821 nM
15 | – | O=C(NO)c1ccc(CCCN2CCC(CN[C@H]3C[C@@H]3c3ccc(C(=O)N4CCCCC4)cc3)CC2)cc1 (racemic) | 65% | 72% | 53.9% | – | 23 nM
16 | – | O=C(NO)c1ccc(CN2CCC(CN[C@H]3C[C@@H]3c3ccccc3)CC2)cc1 (racemic) | 63% | 53% | 12.9% | – | –
17 | – | O=C(NO)c1ccc(CCCN2CCC(CN[C@H]3C[C@@H]3c3ccc(-c4ccc(C(F)(F)F)nc4)cc3)CC2)cc1 (racemic) | 79% | 85% | 33.5% | 100 nM | 19 nM
18 | – | Cn1ccc(-c2ccc([C@H]3C[C@@H]3NCC3CCN(CCCc4ccc(C(=O)NO)cc4)CC3)cc2)cc1=O (racemic) | 73% | 72% | 59.4% | 46 nM | 21 nM
